Results as given in patent publication US20260008793A1, “IONIZABLE CATIONIC LIPIDS INCORPORATING SILICON” (ALDEXCHEM KFT., priority 2022, published 2026).

Legend:
[1] = LNP size, PDI and zeta potential by Dynamic Light Scattering (Method A); assay type: physicochemical; details: LNP formulated by Method A; for Zeta potential (mV): 1xPBS pH 7.4; for PDI / Size (nm): DLS; for Size (nm): Luciferase-mRNA loaded
Method: (§1) The synthesized lipids were tested in term of in vitro transfection efficacy and toxicity on HeLa cells. In order to perform the mentioned biological tests, appropriate LNPs had to be formulated from the synthesized lipids. The formulation technique was different in Method A and B. The particle size, PDI and zeta potential of resulting LNPs were determined by means of Dynamic Light Scattering technique (DLS). Prior to biological testing the encapsulation efficiency (EE) of the loaded LNPs was determined by using RiboGreen RNA assay. In case of Method A Luciferase-mRNA while in case of Method B GFP-mRNA was transfected into the cells. In parallel with the transfection experiments, toxicity of the investigated LNPs was determined, in case of Method A resazurin assay while in case of Method B MTT assay was used. In the case of some lipids, the apparent pKa in LNPs was determined by using TNS titration based on the method described: Angew Chem Int Ed Engl. 2012, 51 (34), 8529-8533, doi: 10.1002/anie.201203263).
• 1. If needed, prepare stock solutions by solving known amounts of lipid powder into an appropriate solvent. The recommended solvent is Ethanol and the recommended concentration is typically in the range 10-50 mM. Higher concentrations are preferred to allow flexibility on mRNA-LNP concentration. • 2. Remove the lipid stock solutions from the −20° C. freezer. For long-term storage, −80° C. is used. • 3. Check the vials for precipitation, DOPE (CAS #4004-05-1) (20 mM) and DSPE-PEG (CAS #474922-26-4) (5 mM) may need a 5-30 minute incubation step at 37° C. with intermittent vortexing to resuspend all contents. […] As a last resort, lipids may be heated to 50° C. to resuspend, time should be kept as short as possible to prevent oxidation or other modifying or degradative processes. • 4. Mix the lipids by vortexing for 2 minutes. • 5. […] Cooling the solution prevent excessive evaporation of ethanol or similar solvents upon opening. • 6. Meanwhile, thaw the RNA samples, including the latest SecNLuc control, by inserting the frozen tube in a room temperature aluminium block. • 7. Prepare for each LNP-formulation with identical mRNA component, an RNA master mix according to Table 1 below in a fresh tube. Use of a master mix allows more precise comparison of lipid formulations relative to each other. Split the master mix over a number of fresh tubes equal to the number of samples+controls. Each tube contains 375 μl of mRNA in 10 mM Citrate pH 4.0. • 8. Prepare for each LNP formulation with identical lipid composition a Lipid master mix according to Table 1 below in a fresh tube, exclude the lipid of interest. Use of a master mix allows more precise comparison of the novel ionizable lipid relative to each other. Split the master mix over a number of fresh tubes equal to the number of samples+controls. Each tube contains 65.5 μl of lipid master mix. • 9. Add the ionizable lipid of interest to the equally divide lipid master mix. Mix well by pipetting up and down. Label the tube according to the ionizable lipid used. • 10. Power on the ‘L 1 formulation machine’ (L 1 FM) and allow it to do a calibration of motor positions.
• 18. Fill a fresh syringe (C) through a blunt 18 G stainless steel needle with the previously prepared RNA mixture of step 6. The volume should be approximately […] of total formulation volume+25 μl (dead-volume). Make sure to remove all air bubbles by tapping. • 19. Fill a fresh syringe (D) through a blunt 18 G stainless steel needle with the Lipid master mix. The volume should be approximately 35% of total formulation volume+25 μl (dead-volume). Again, Make sure to remove all bubbles. • 20. Attach the syringes in the correct orientation, syringe A on the left and syringe B on the right • 21. Load the ‘Receiving station’ with appropriate sized collection containers (2 ml Eppendorf tubes). • 22. Press the microfluidic chip to the back of the machine with your thumb and hold, press the ‘Button 1’ (40 g). […]

HeLa cells = experiment: Transfection efficiency with Luciferase-mRNA, Nano-Glo assay (Method A); assay type: cell-based; details: 100 ng Luciferase (SecNLuc) mRNA, 24 h, luminescence
Method: as §1
• 1. Prepare mRNA solution by adding 100 ng mRNA (SecNLuc, #P009024, RiboPro) to 5 μl Opti-MEM • a. multiply by number of wells, include different concentrations and add 10% extra • b. a standard set-up we use is 100 ng-50 ng-10 ng mRNA/well in triplicate, which would need 528 ng mRNA (includes 10% extra)
• 2. (If applicable) Prepare different concentrations in Opti-MEM (for instance 100/50/10 ng). • 3. Add 10 μl to each well and mix carefully by pipetting. • 4. Mix by swirling the plate horizontally at modest speed. Reverse in direction 3 times. • 5. Incubate for 24 hours (incubator).
This protocol is applied to measure luciferase activity for secreted NanoLuc and is based on the protocol by Promega (Nano-Glo® Luciferase Assay System #N1110-1150). The protocol is designed for a 384-wells plate, but volumes can be changed accordingly for other plates.
• 1. Plate cells (HeLa) in 96-well plate, grow until 80% confluent and transfect with SecNanoLuc mRNA and incubate for the desired period (24 h). • 2. After incubation, the translated protein is accumulated in the medium. Transfer medium to a new plate or tubes • 3. Transfer 12 μl of each sample to a black-walled, clear-bottom 384-well plate • a. Black-walled plates are important to prevent shine-through of luminescence from other wells; alternatively, multiple wells between samples can be left empty • 4. Set-up plate reader • 5. Prepare the desired amount of Nano-Glo® Luciferase Assay Reagent by combining one volume of Nano-Glo® Luciferase Assay Substrate with 50 volumes of Nano-Glo® Luciferase Assay Buffer • a. composition: 100 mM MES pH 6; 1 mM EDTA; 0.5% NP-50; 150 mM KCl; 1 mM DTT; 35 mM Thiourea • b. Briefly spin tubes containing substrate in a microcentrifuge before use • 6. Add and mix (by pipetting) 12 μl Nano-Glo® Luciferase Assay Reagent per well • a. Wait approximately 3 minutes before measuring luminescence. […] Measure luminescence in plate reader using standard protocol luciferase (this includes mixing sample in plate reader)

SMILES	Zeta potential (mV) [1]	PDI [1]	Size (nm) [1]	Transfection* (Method A = 100 ng mRNA) (HeLa cells)
CCCCCCCCOC(CCCCCN(CCCCO)CCCCCCOC(=O)C(CCCCCCCC)SCCCCC)O[Si](C)(C)O[Si](C)(C)OCCCCCCCC (centres unmarked) [Example 183, 6-((4-hydroxybutyl)(6-(octyloxy)-6-((1,1,3,3-tetramethyl-3-(octyloxy)disiloxaneyl)oxy)hexyl)amino)hexyl 2-(pentylthio)decanoate]	−10.92 mV	0.044	143.9 nm	968235
CCCCCCCCCCCOC(=O)CCCCCN(CCO)CCCCCCCCCC(OCCCCCCCC)O[Si](C)(C)CCCCCC (centres unmarked) [Example 210, undecyl 6-((10-((hexyldimethylsilyl)oxy)-10-(octyloxy)decyl)(2-hydroxyethyl)amino)hexanoate]	−18.75 mV	0.097	181.2 nm	1936082
CCCCCCCCO[Si](C)(C)OC(CCCCCCC)OCCCCCCN(CCCCO)CCCCCCOC(=O)C(CCCCCC)CCCCCCCC (centres unmarked) [Example 131, 15-heptyl-7-(4-hydroxybutyl)-17,17-dimethyl-14,16,18-trioxa-7-aza-17-silahexacosyl 2-hexyldecanoate]	−16.95 mV	0.219	244.2 nm	951145
CCCCCCCCOC(CCCCCCC)O[Si](C)(C)OCCCCCCN(CCCCO)CCCCCCOC(=O)C(CCCCCCCC)SCCCCC (centres unmarked) [Example 188, 17-heptyl-7-(4-hydroxybutyl)-15,15-dimethyl-14,16,18-trioxa-7-aza-15-silahexacosyl 2-(pentylthio)decanoate]	−18.1 mV	0.08	160.0 nm	11210992
CCCCCCCCOC(CCCCCCC)O[Si](C)(C)CCCCCCN(CCCCO)CCC[C@@H](C)C1CCC2C3CCC4C[C@H](OC)CC[C@]4(C)C3CC[C@@]21C (stereo partly drawn) [Example 224, 14-heptyl-5-((4R)-4-((3R,10S,13R)-3-methoxy-10,13-dimethylhexadecahydro-1H-cyclopenta[a]phenanthren-17-yl)pentyl)-12,12-dimethyl-13,15-dioxa-5-aza-12-silatricosan-1-ol]	−16.58 mV	0.08	176.5 nm	4919513
CCCCCCCCCCSC(CCCC)C(=O)OCCCCCCN(CCCCO)CCCCCCOC(CCCCCCC)O[Si](C)(C)CCCCCCCC (centres unmarked) [Example 167, 15-heptyl-7-(4-hydroxybutyl)-17,17-dimethyl-14,16-dioxa-7-aza-17-silapentacosyl 2-(decylthio)hexanoate]	−13.69 mV	0.04	202.9 nm	3110369
CC/C=C\C/C=C\C/C=C\C/C=C\C/C=C\CCCCN(CCCCO)CCCCCC(OCCCCCCCC)O[Si](C)(C)CCCCCCCC (centres unmarked) [Example 194, 4-((6-((dimethyl(octyl)silyl)oxy)-6-(octyloxy)hexyl)((5Z,8Z,11Z,14Z,17Z)-icosa-5,8,11,14,17-pentaen-1-yl)amino)butan-1-ol]	−16.45 mV	0.085	153.5 nm	152542
CCCCCCCC[Si](C)(C)OC(CCCCCCC)OCCCCCCN(CCCCCCOC(CCCCCCC)O[Si](C)(C)CCCCCCCC)CCC1CCCN1C (centres unmarked) [Example 120, 6-((1-((dimethyl(octyl)silyl)oxy)octyl)oxy)-N-(6-((1-((dimethyl(octyl)silyl)oxy)octyl)oxy)hexyl)-N-(2-(1-methylpyrrolidin-2-yl)ethyl)hexan-1-amine]	−13.18 mV	0.055	161.4 nm	469598.5
